According to US7407914B2, “Herbicide composition” (Sumitomo Chemical Company, Limited, priority 2001, dated 2008):

System: broadleaf signalgrass
Test: Foliar spray herbicide effect test in greenhouse pots (Test Example 1)
Format: in vivo, Brachiaria platyphylla
Settings: evaluated 5 days after treatment, level 0-10
Experimental: Evaluation of phytotoxicity against a crop was shown by “no” when almost no phytotoxicity was observed, “low” when a low level phytotoxicity was observed, “medium” when a medium level phytotoxicity was observed and “high” when a high level phytotoxicity was observed.
A plastic pot of 11 cm in diameter and 8 cm in depth was filled with field soil. A seed of broadleaf signalgrass was sown and grown in a greenhouse for 28 days.
An emulsion of Compound A-1 was prepared by sufficiently mixing […] of Compound A-1, 6 parts of Sorpol 3005× (surfactant, produced by Toho Chemical) and 89 parts of xylene.
Each of • single use of an emulsion of Compound A-1, • single use of a formulation of Flumioxazin (commercial name: Pledge, produced by Sumitomo Chemical, containing 50% of Flumioxazin), • single use of a formulation of Sulfentrazone (commercial name: Authority, produced by Du Pont, containing 75% of Sulfentrazone), • a mixed composition of an emulsion of Compound A-1 and a formulation of Flumioxazin, and • a mixed composition of an emulsion of Compound A-1 and a solution of Sulfentrazone • were diluted with water containing 1% Agri-dex (produced by Helena). […]
After the treatment, they were raised in a greenhouse for 5 days and the effect against weeds was evaluated. In addition, after 14 days of the treatment, the phytotoxicity to soybean was evaluated.

Cc1nn(-c2cc(NS(C)(=O)=O)c(Cl)cc2Cl)c(=O)n1C(F)F [Sulfentrazone, N-[2,4-dichloro-5-[4-(difluoromethyl)-4,5-dihydro-3-methyl-5-oxo-1H-1,2,4-triazol-1-yl]phenyl]methanesulfonamide]
Herbicide Effect Broad signalgrass (200 g/ha active ingredient): 1 | Herbicide Effect Broad signalgrass (1200 g/ha active ingredient): 3
